In patent publication US10479780B2, “Aminopyrazole derivatives” (Chugai Seiyaku Kabushiki Kaisha, priority 2015, dated 2019):

Experiments:
Format in all cases: biochemical
human Yes1 enzyme = biological target: T1, human Yes1 enzyme (Homo sapiens, UniProt P07947); test: Yes1 enzyme inhibitory activity (time-resolved fluorometry, biotinylated peptide phosphorylation); conditions: read-out: YES_IC50
T1 construct: made in house
Procedure, shortened: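 Inhibition was expressed against a compound-free control to give IC50, using TR-FRET read-out (Eu-cryptate anti-pTyr antibody, streptavidin-XL665).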

human Src enzyme = biological target: T2, human Src enzyme (Homo sapiens, UniProt P12931); test: Src enzyme inhibitory activity (time-resolved fluorometry, biotinylated peptide phosphorylation); conditions: read-out: SRC_IC50
T2 construct: purchased Carna Biosciences, Inc. 08-173
T2 sequence (P12931 whole entry): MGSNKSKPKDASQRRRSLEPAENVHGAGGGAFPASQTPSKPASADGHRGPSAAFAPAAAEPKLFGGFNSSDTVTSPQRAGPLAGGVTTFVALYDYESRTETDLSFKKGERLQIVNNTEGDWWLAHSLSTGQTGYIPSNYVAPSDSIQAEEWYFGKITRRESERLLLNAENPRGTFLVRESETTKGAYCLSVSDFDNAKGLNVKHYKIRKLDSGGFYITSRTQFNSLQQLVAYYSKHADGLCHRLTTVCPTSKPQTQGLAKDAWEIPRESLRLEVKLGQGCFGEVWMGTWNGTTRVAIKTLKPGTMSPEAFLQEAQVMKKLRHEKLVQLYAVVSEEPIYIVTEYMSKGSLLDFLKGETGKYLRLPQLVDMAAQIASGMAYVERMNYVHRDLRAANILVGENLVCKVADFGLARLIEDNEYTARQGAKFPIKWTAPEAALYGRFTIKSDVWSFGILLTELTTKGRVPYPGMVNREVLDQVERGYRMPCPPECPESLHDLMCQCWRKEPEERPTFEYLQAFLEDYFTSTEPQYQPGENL
Procedure, shortened: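 Compounds were tested for blocking tyrosine phosphorylation of a biotinylated peptide substrate by recombinant human Src. Phosphorylated product was quantified by time-resolved fluorometry using europium cryptate and XL665 conjugates, and IC50 was calculated against the compound-free control.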

human Lck enzyme = biological target: T3, human Lck enzyme (Homo sapiens, UniProt P06239); test: Lck enzyme inhibitory activity (time-resolved fluorometry, biotinylated peptide phosphorylation); conditions: read-out: LCK_IC50
T3 construct: purchased Carna Biosciences, Inc. 08-170
T3 sequence (P06239 whole entry): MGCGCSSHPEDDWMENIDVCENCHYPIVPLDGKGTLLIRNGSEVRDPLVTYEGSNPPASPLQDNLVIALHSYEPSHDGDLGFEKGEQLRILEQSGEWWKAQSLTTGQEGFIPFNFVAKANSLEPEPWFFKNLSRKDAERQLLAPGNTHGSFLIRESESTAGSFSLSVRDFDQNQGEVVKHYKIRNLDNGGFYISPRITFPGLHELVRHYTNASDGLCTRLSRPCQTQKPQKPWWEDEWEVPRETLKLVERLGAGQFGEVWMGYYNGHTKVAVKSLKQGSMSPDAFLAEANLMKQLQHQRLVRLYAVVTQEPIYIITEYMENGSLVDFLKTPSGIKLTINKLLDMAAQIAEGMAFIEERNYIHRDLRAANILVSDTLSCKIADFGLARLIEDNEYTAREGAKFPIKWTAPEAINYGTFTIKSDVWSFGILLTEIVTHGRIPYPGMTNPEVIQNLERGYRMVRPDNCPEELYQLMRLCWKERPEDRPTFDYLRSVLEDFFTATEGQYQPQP
Procedure, shortened: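 Readout pairs a europium cryptate-labelled anti-phosphotyrosine antibody with XL665-streptavidin, measured by time-resolved fluorescence. IC50 derived from percent inhibition against untreated controls.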

T1 sequence (P07947 whole entry): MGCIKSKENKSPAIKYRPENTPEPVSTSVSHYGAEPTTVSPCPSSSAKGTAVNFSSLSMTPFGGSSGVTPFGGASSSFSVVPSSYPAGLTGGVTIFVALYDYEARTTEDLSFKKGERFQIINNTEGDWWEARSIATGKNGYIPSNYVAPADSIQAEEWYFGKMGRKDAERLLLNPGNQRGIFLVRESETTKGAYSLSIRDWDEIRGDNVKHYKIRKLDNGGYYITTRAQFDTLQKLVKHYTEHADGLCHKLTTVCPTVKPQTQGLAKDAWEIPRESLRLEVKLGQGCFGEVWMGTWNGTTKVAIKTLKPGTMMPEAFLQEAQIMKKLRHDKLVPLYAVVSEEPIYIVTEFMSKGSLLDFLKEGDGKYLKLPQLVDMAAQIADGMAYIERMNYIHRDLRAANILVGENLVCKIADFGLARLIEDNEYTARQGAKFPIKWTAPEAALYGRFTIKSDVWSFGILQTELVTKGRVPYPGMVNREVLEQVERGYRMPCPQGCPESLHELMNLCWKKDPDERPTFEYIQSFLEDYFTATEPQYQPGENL

SMILES	IC50 (human Yes1 enzyme) [nM]	IC50 (human Src enzyme) [nM]	IC50 (human Lck enzyme) [nM]
Cc1cc(Oc2ccccc2F)ccc1-n1ncc(C(=O)c2cc3cc(F)c(N4CC(C)(C)NS4(=O)=O)cc3[nH]2)c1N [Example 5-1-302, (5-amino-1-(4-(2-fluorophenoxy)-2-methylphenyl)-1H-pyrazol-4-yl)(6-(4,4-dimethyl-1,1-dioxido-1,2,5-thiadiazolidin-2-yl)-5-fluoro-1H-indol-2-yl)methanone]	1.9	50	22
Cc1cc(Oc2c(F)cccc2F)ncc1-n1ncc(C(=O)c2cc3cc(C(C)C)c(NS(=O)(=O)N4C5CCC4COC5)cc3[nH]2)c1N [Example 5-1-303, N-[2-[5-amino-1-[6-(2,6-difluorophenoxy)-4-methylpyridin-3-yl]pyrazole-4-carbonyl]-5-propan-2-yl-1H-indol-6-yl]-3-oxa-8-azabicyclo [3.2.1]octane-8-sulfonamide]	27	1500	320
Cc1cc(Oc2c(F)cccc2F)ncc1-n1ncc(C(=O)c2cc3cc(C(C)C)c(NS(=O)(=O)C4CCCCC4)cc3[nH]2)c1N [Example 5-1-304, N-[2-[5-amino-1-[6-(2,6-difluorophenoxy)-4-methylpyridin-3-yl]pyrazole-4-carbonyl]-5-propan-2-yl-1H-indol-6-yl] cyclohexanesulfonamide]	32	1300	400
Cc1cc(Oc2c(F)cccc2F)ncc1-n1ncc(C(=O)c2cc3cc(C(C)C)c(NS(=O)(=O)CCCF)cc3[nH]2)c1N [Example 5-1-305, N-[2-[5-amino-1-[6-(2,6-difluorophenoxy)-4-methylpyridin-3-yl]pyrazole-4-carbonyl]-5-propan-2-yl-1H-indol-6-yl]-3-fluoropropane-1-sulfonamide]	9.8	380	84
Cc1cc(Oc2c(F)cccc2F)ncc1-n1ncc(C(=O)c2cc3cc(C(C)C)c(NS(=O)(=O)C4CCCC4)cc3[nH]2)c1N [Example 5-1-306, N-[2-[5-amino-1-[6-(2,6-difluorophenoxy)-4-methylpyridin-3-yl]pyrazole-4-carbonyl]-5-propan-2-yl-1H-indol-6-yl] cyclopentanesulfonamide]	23	630	150
Cc1cc(-n2ncc(C(=O)c3cc4cc(OC5CCN(C6CCCC6)CC5)c(-c5ccccc5F)cc4[nH]3)c2N)ccc1Oc1ccccc1F [Example 5-1-308, [5-amino-1-[4-(2-fluorophenoxy)-3-methylphenyl]pyrazol-4-yl]-[5-(1-cyclopentylpiperidin-4-yl)oxy-6-(2-fluorophenyl)-1H-indol-2-yl]methanone]	7.7	1300	200
Cc1cc(-n2ncc(C(=O)c3cc4cc(OC5CCN(C6CS(=O)(=O)C6)CC5)c(-c5ccccc5F)cc4[nH]3)c2N)ccc1Oc1ccccc1F [Example 5-1-309, [5-amino-1-[4-(2-fluorophenoxy)-3-methylphenyl]pyrazol-4-yl]-[5-[1-(1,1-dioxothietan-3-yl)piperidin-4-yl]oxy-6-(2-fluorophenyl)-1H-indol-2-yl]methanone]	12	3600	410
Cc1cc(Oc2c(F)cccc2F)ncc1-n1ncc(C(=O)c2cc3cc(OC4CCN(C5CCCC5)CC4)c(-c4ccccc4F)cc3[nH]2)c1N [Example 5-1-310, [5-amino-1-[6-(2,6-difluorophenoxy)-4-methylpyridin-3-yl]pyrazol-4-yl]-[5-(1-cyclopentylpiperidin-4-yl)oxy-6-(2-fluorophenyl)-1H-indol-2-yl]methanone]	3.4	38	22
Cc1cc(Oc2c(F)cccc2F)ncc1-n1ncc(C(=O)c2cc3cc(OC4CCN(C5CS(=O)(=O)C5)CC4)c(-c4ccccc4F)cc3[nH]2)c1N [Example 5-1-311, [5-amino-1-[6-(2,6-difluorophenoxy)-4-methylpyridin-3-yl]pyrazol-4-yl]-[5-[1-(1,1-dioxothietan-3-yl)piperidin-4-yl]oxy-6-(2-fluorophenyl)-1H-indol-2-yl]methanone]	3.6	48	15
Cc1cc(Oc2c(F)cccc2F)ncc1-n1ncc(C(=O)c2cc3cc(F)c(N4C(=O)NC5(CCC5)C4=O)cc3[nH]2)c1N [Example 5-1-312, 7-[2-[5-amino-1-[6-(2,6-difluorophenoxy)-4-methylpyridin-3-yl]pyrazole-4-carbonyl]-5-fluoro-1H-indol-6-yl]-5,7-diazaspiro[3.4]octane-6,8-dione]	3.5	160	10
Cc1cc2cc(C(=O)c3cnn(-c4cnc(Oc5c(F)cccc5F)cc4C)c3N)[nH]c2cc1N1CC(C)(C)NS1(=O)=O [Example 5-1-313, [5-amino-1-[6-(2,6-difluorophenoxy)-4-methylpyridin-3-yl]pyrazol-4-yl]-[6-(4,4-dimethyl-1,1-dioxo-1,2,5-thiadiazolidin-2-yl)-5-methyl-1H-indol-2-yl]methanone]	2.8	73	19
Cc1cc2cc(C(=O)c3cnn(-c4cnc(Oc5c(F)cccc5F)cc4C)c3N)[nH]c2cc1NS(=O)(=O)C1CCCCC1 [Example 5-1-314, N-[2-[5-amino-1-[6-(2,6-difluorophenoxy)-4-methylpyridin-3-yl]pyrazole-4-carbonyl]-5-methyl-1H-indol-6-yl]cyclohexanesulfonamide]	9.6	480	150
Cc1cc(Oc2c(F)cccc2F)ncc1-n1ncc(C(=O)c2cc3cc(OCC(F)F)c(NS(=O)(=O)C4CCCCC4)cc3[nH]2)c1N [Example 5-1-315, N-[2-[5-amino-1-[6-(2,6-difluorophenoxy)-4-methylpyridin-3-yl]pyrazole-4-carbonyl]-5-(2,2-difluoroethoxy)-1H-indol-6-yl] cyclohexanesulfonamide]	8.1	330	130
Cc1cc2cc(C(=O)c3cnn(-c4cnc(Oc5c(F)cccc5F)cc4C)c3N)[nH]c2cc1N1C(=O)NC2(CCCCC2)C1=O [Example 5-1-316, 3-[2-[5-amino-1-[6-(2,6-difluorophenoxy)-4-methylpyridin-3-yl]pyrazole-4-carbonyl]-5-methyl-1H-indol-6-yl]-1,3-diazaspiro[4.5] decane-2,4-dione]	6.2	170	29
Cc1cc2cc(C(=O)c3cnn(-c4cnc(Oc5c(F)cccc5F)cc4C)c3N)[nH]c2cc1NS(=O)(=O)C1CCCC1 [Example 5-1-317, N-[2-[5-amino-1-[6-(2,6-difluorophenoxy)-4-methylpyridin-3-yl]pyrazole-4-carbonyl]-5-methyl-1H-indol-6-yl]cyclopentanesulfonamide]	16	500	110
Cc1cc(Oc2c(F)cccc2F)ncc1-n1ncc(C(=O)c2cc3cc(OCC(F)F)c(NS(=O)(=O)C4CCCC4)cc3[nH]2)c1N [Example 5-1-318, N-[2-[5-amino-1-[6-(2,6-difluorophenoxy)-4-methylpyridin-3-yl]pyrazole-4-carbonyl]-5-(2,2-difluoroethoxy)-1H-indol-6-yl] cyclopentanesulfonamide]	10	350	120
